Laboratory results reported in US7718160B2, “Radiolabeled compounds and liposomes and their method of making and using same” (The Board of Regents of the University of Texas System, priority 2002, dated 2010).
Entries after “also recorded” stand apart in the source; their conditions may differ.

Columns and labels:
Format in all cases: in vivo
[1] = Normal rat biodistribution of ^99mTc-liposomes at 20 hours after intravenous injection
Description: For comparison, biodistributions of the ^99mTc-“SNS/S” complexes used for liposome labeling were also performed.

[2] = Gamma camera images of normal rats after intravenous injection (^99mTc); settings: rat, baseline, 1 hour, 4 hours and 20 hours after intravenous injection
Source text: (H: Heart; S: Spleen; L: Liver; Bo: Bowel; B1: Bladder.)
(H: Heart; S: Spleen; L: Liver; Bo: Bowel.)
From the images, significant differences between ^99mTc-liposome labeled with ^99mTc-“BMEDA” and ^99mTc-“BMEDA” alone were observed. […] From the images, significant differences between ^99mTc-liposome labeled with ^99mTc-“BMEDA+BT” and ^99mTc-“BMEDA+BT” alone were observed.

[3] = Normal rat biodistribution of ^186Re-liposomes at 72 hours after intravenous injection
[4] = Gamma camera images of normal rats after intravenous injection (^186Re); settings: rat, baseline, 1 hour, 4 hours, 24 hours and 72 hours after intravenous injection

SMILES: CCN(CC)CCN(CCS)CC[S][99Tc]1(=[O])[S]CCN(CCN(CC)CC)CC[S]1 [^99mTc-“BMEDA” alone]
- distribution behavior [1]: does not
- distribution seen in gamma camera images [2]: fast blood clearance, fast excretion into bowel and urine, and no spleen accumulation

SMILES: CCN(CC)CCN(CCS)CC[S][186Re]1(=[O])[S]CCN(CCN(CC)CC)CC[S]1 [^186Re-“BMEDA” Alone]
- % ID/Gram (Average ± Sd), Blood ([3]; normal rat): 0.022 ± 0.001 % ID/Gram
- % ID/Gram (Average ± Sd), Bowel ([3]; normal rat): 0.34 ± 0.19 % ID/Gram
- % ID/Gram (Average ± Sd), Brain ([3]; normal rat): 0.0035 ± 0.0007 % ID/Gram
- % ID/Gram (Average ± Sd), Feces ([3]; normal rat): 4.82 ± 1.53 % ID/Gram
- % ID/Gram (Average ± Sd), Femur ([3]; normal rat): 0.014 ± 0.000 % ID/Gram
- % ID/Gram (Average ± Sd), Heart ([3]; normal rat): 0.069 ± 0.007 % ID/Gram
- % ID/Gram (Average ± Sd), Kidney ([3]; normal rat): 4.49 ± 0.37 % ID/Gram
- % ID/Gram (Average ± Sd), Liver ([3]; normal rat): 0.54 ± 0.05 % ID/Gram
- % ID/Gram (Average ± Sd), Lung ([3]; normal rat): 0.23 ± 0.03 % ID/Gram
- % ID/Gram (Average ± Sd), Muscle ([3]; normal rat): 0.0048 ± 0.0005 % ID/Gram
- % ID/Gram (Average ± Sd), Skin ([3]; normal rat): 0.029 ± 0.012 % ID/Gram
- % ID/Gram (Average ± Sd), Spleen ([3]; normal rat): 0.38 ± 0.14 % ID/Gram
- % ID/Gram (Average ± Sd), Testis ([3]; normal rat): 0.015 ± 0.003 % ID/Gram
- % ID/Gram (Average ± Sd), Urine ([3]; normal rat): 0.79 ± 0.08 % ID/Gram
- % ID/Organ (Average ± Sd), Blood ([3]; normal rat): 0.49 ± 0.04 % ID/Organ
- % ID/Organ (Average ± Sd), Bowel ([3]; normal rat): 6.67 ± 3.31 % ID/Organ
- % ID/Organ (Average ± Sd), Brain ([3]; normal rat): 0.0052 ± 0.0007 % ID/Organ
- % ID/Organ (Average ± Sd), Feces ([3]; normal rat): 20.54 ± 4.35 % ID/Organ
- % ID/Organ (Average ± Sd), Femur ([3]; normal rat): 0.58 ± 0.06 % ID/Organ
- % ID/Organ (Average ± Sd), Heart ([3]; normal rat): 0.076 ± 0.005 % ID/Organ
- % ID/Organ (Average ± Sd), Kidney ([3]; normal rat): 10.42 ± 0.93 % ID/Organ
- % ID/Organ (Average ± Sd), Liver ([3]; normal rat): 5.97 ± 0.35 % ID/Organ
- % ID/Organ (Average ± Sd), Lung ([3]; normal rat): 0.37 ± 0.06 % ID/Organ
- % ID/Organ (Average ± Sd), Muscle ([3]; normal rat): 0.79 ± 0.07 % ID/Organ
- % ID/Organ (Average ± Sd), Skin ([3]; normal rat): 1.48 ± 0.51 % ID/Organ
- % ID/Organ (Average ± Sd), Spleen ([3]; normal rat): 0.21 ± 0.05 % ID/Organ
- % ID/Organ (Average ± Sd), Testis ([3]; normal rat): 0.058 ± 0.004 % ID/Organ
- % ID/Organ (Average ± Sd), Urine ([3]; normal rat): 26.93 ± 4.23 % ID/Organ
- spleen accumulation ([3]; rat): did not show the spleen accumulation behavior
- distribution seen in gamma camera images [4]: significant excretion from the hepatobiliary system and no apparent spleen accumulation; also recorded: fast blood clearance, fast excretion into bowel and urine, and no spleen accumulation
- distribution seen in gamma camera images ([4]; listed as 186Re-“BMBDA” alone): fast blood clearance, fast excretion into bowel and urine, and no spleen accumulation
